Values quoted from earlier work in US7169813B2, “4-oxo-fenretinide, administered alone and in combination with fenretinide, as preventive and therapeutic agent for cancer” (Fondazione IRCCS “Istituto Nazionale Dei Tumori”, priority 2004, dated 2007).

What was measured:
human ovarian carcinoma = conditions: mice bearing a human ovarian carcinoma, cited from earlier work
[1] = tested on: different tumor cell lines; conditions: cited from earlier work

COc1ccc(NC(=O)\C=C(C)/C=C/C=C(C)\C=C\C2=C(C)CCCC2(C)C)cc1 (stereo in doubt) [4-MPR, N-(4-methoxyphenyl)retinamide]
antitumor effect (human ovarian carcinoma): no antitumor effect | effect on 4-HPR activity (human ovarian carcinoma; with 4-HPR): did not increase 4-HPR activity | inhibiting proliferation [1]: ineffective
